Test results taken from BigSolDB 2.1.

CCOC(=O)[C@@H](N)Cc1ccccc1.Cl
solubility (mole fraction)
Details	283.15 K	288.15 K	293.15 K	298.15 K	303.15 K	308.15 K	313.15 K	318.15 K	323.15 K
in 1,4-dioxane	–	0.0023	0.00301	0.0037	0.00498	0.00668	0.00876	0.0115	0.0148
in 2-butoxyethanol	0.035	0.039	0.0435	0.0473	0.052	0.0575	0.0633	0.0695	0.076
in 2-propoxyethanol	0.042	0.0472	0.052	0.0557	0.0616	0.0675	0.0738	0.08	0.087
in THF	0.00079	0.00102	0.00127	0.0016	0.00204	0.00257	0.00316	0.00398	0.00491
in isopropanol	0.0074	0.00934	0.0117	0.0147	0.0189	0.0227	0.0278	0.0337	0.0413
in n-butanol	0.0176	0.0218	0.0262	0.032	0.0355	0.0417	0.0509	0.0601	0.0696
in n-propanol	0.0272	0.0316	0.0367	0.0423	0.0491	0.0566	0.0656	0.0734	0.0838
